Source: US4879220A (priority 1986, dated 1989)

What was measured:
[1] = tested on: human foreskin fibroblasts; experiment: Morphology and attachment of cultured fibroblasts on exposure to probe or ligand; format: cell-based
Protocol: Human foreskin fibroblasts were cultured to subconfluency on glass discs placed in culture dishes using Dulbecco's modified Eagle's medium (Gibco Laboratories, Grand Island, NY, U.S.A.). For labeling with glucose-GAP, glass discs with attached fibroblasts were removed from the culture dishes and washed twice with HBS. The cells were then exposed to fresh HBS (experimental) or HBS containing 400 mM glucose or 0.4 uM cytochalasin B (controls) for 5 min at room temperature. […] Cytochem. […] The discs were then placed in a drop of HBS and irradiated on ice as described above for erythrocytes. For labeling with ouabain-GAP cells grown in culture dishes were washed twice with HBS and exposed to HBS containing 400 mM glucose (experimental) or HBS containing 400 mM glucose plus 2 mM ouabain (control) for 15 min at 37° C. An equal volume of ouabain-GAP was then added followed by incubation for 30 min in the dark at room temperature. At this point, the presence of ouabain or ouabain-GAP caused the cells to detach from the substrate. The cells were recovered and unbound probe was removed by centrifugation in HBS. Cells were resuspended in fresh HBS and irradiated for 15 min in a water-jacketed cell at 4° C. using the light source described above.

ATPase = settings: ouabain-ATPase complex; Erdmann and Hasse; read-out: dissociation constant; cited from earlier work
glucose transporter = molecular target: T1, glucose transporter (Homo sapiens, UniProt P11166); settings: glucose-glucose transporter complex; Sogin and Hinkle; read-out: dissociation constant; cited from earlier work
T1 construct: intact human erythrocytes labeled with the glucose transporter-specific probe (glucose-GAP); endogenous in cells; host or cells: human erythrocytes
T1 sequence (P11166 1-492): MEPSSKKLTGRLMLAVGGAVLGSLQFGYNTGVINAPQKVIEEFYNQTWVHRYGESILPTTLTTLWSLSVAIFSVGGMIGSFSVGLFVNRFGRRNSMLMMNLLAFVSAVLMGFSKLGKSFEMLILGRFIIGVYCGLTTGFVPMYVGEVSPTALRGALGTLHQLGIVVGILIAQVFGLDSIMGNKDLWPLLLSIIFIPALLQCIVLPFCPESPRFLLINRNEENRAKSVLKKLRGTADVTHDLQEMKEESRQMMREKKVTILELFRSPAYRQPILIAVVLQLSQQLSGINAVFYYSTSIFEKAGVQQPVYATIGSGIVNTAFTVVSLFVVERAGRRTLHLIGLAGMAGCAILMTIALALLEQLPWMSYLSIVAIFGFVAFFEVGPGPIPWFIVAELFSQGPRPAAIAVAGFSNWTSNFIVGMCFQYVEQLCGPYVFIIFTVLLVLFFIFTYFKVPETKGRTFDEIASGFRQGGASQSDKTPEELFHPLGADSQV

| SMILES | morphological response of fibroblasts [1] | Kd (ATPase) [nM] | Kd (glucose transporter) [mM] |
| --- | --- | --- | --- |
| C[C@@H]1O[C@@H](O[C@H]2C[C@@H](O)[C@]3(CO)[C@H]4[C@H](O)C[C@]5(C)[C@@H](C6=CC(=O)OC6)CC[C@]5(O)[C@@H]4CC[C@]3(O)C2)[C@H](O)[C@H](O)[C@H]1O [ouabain] | caused the cells to lift from the substrate and take on a rounded morphology | 2.8 | – |
| OC[C@H]1OC(O)[C@H](O)[C@@H](O)[C@@H]1O (stereo partly drawn) [glucose] | – | – | 50 |
